Where two headings read alike, the source gives them in different places.
Assays:
[1] = test system: HIV-1 infection of TZM-bl cells; assay: HIV-1 infectivity enhancement assay, β-galactosidase luminescence; assay type: cell-based; conditions: for Rel-EFC: infection relative to EF-C (QCKIKQIINMWQ = 1); for Log10 Infection Rel EFC: log10 of infection relative to EF-C; for Log Infectivity: Log10 infection relative to EF-C, asymmetric std dev errors; for Log Infectivity / Abs. Inf.: TZM-bl cells; for Log10 Infection Rel EF-C: HIV-1 infection of TZM-bl cells; for Log10 of Rel to EFC (Feb2021): Log10 of infection relative to EF-C; for Abs. Inf.: absolute HIV-1 infection signal, β-galactosidase luminescence
[2] = assay type: physicochemical; conditions: for ThT Cat. / ThT-Fluorescence (categorical): ThT-active if fluorescence at least twice the control
Outline: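 Preformed peptide fibrils (1 mg/mL) mixed with 50 µM ThT in PBS, 15 min at RT, fluorescence ex 440/em 488 nm versus PBS blank, triplicates. Zeta potential: peptides at 1 mg/mL in PBS pH 7.4, aged 1 d at RT, diluted in 1 mM KCl, Smoluchowski from electrophoretic mobility.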

[3] = Conversion rate (CR) assay with fluorescamine; assay type: physicochemical; set-up: key to CR: % = 100−100×filtrate/original fluorescence intensity; conditions: conversion rate, fluorescamine assay; for CR / %: Fig. S7 panel B
Outline: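 Fluorescamine labelling (20 min RT, λex 365/λem 470 nm) of 3 kDa-MWCO filtrate and unfiltered fibril samples, redissolved in DMSO, gave conversion rate as 100 minus the percentage filtrate/original intensity, in triplicate. Secondary structure was quantified by ATR FT-IR on lyophilized 1 mg/mL fibrils, 64 scans.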

[4] = Fig. S7 panel A (plotted against β-sheet content)
[5] = Fig. S7 panel B (plotted against CR), rounded to two decimals
[6] = Log10 of infection rate relative to EF-C, Figure 3A source data
[7] = infection rate relative to EF-C, log10, data of Figure 2D
[8] = infection rate relative to EF-C, log10, source data of Figure 2C
[9] = second listing, peptides with TEM 2cat 0
[10] = ThT fluorescence category, 1 if Rel. ThT >2

| Sequence | Rel-EFC ([1]; 1.3 µM peptide) | Log10 Infection Rel EFC ([1]; 1.3 µM peptide) | Log Infectivity [1, 4] | Log Infectivity [1, 5] | Log10 Infection Rel EF-C [1, 6] | Log10 Infection Rel EF-C [1, 7] | Log10 Infection Rel EF-C [1, 8] | Log10 of Rel to EFC (Feb2021) ([1]; all peptides of FigS16) | Log10 of Rel to EFC (Feb2021) [1, 9] | Abs. Inf. [1] | Tht category (> 2 to blank = +) ([2]; Fig S10 panel D) | ThT Cat. ([2]; Fig S10 panel E) | ThT Cat, ([2]; ThT category, 1 if Rel. ThT >2) | ThT Cat. ([2]; ThT category, 1 if Rel. ThT >2) | ThT Cat. / ThT-Fluorescence (categorical) [2] | CR / % [3] | CR [3] | ThT Cat. [2, 10] | also measured |
| --- | --- | --- | --- | --- | --- | --- | --- | --- | --- | --- | --- | --- | --- | --- | --- | --- | --- | --- | --- |
| EIEIQINMWQ | 0,13 | -0,88 | -0.881 | -0.88 | -0.88 | -0.881 | -0.881 | -0.88 | -0.88 | 2137 | 1 (ThT. Cat is 1, if Rel. ThT >2) | 1 (ThT. Cat is 1, if Rel. ThT >2) | 1 (ThT. Cat is 1, if Rel. ThT >2) | 1 (ThT. Cat is 1, if Rel. ThT >2) | 1 (ThT. Cat is 1, if Rel. ThT >2) | 89.9% | 89.92 |  | infectivity enhancement relative to EF-C ([1]; 1.3 µM peptide): 13% |
| EIKIQINM | 0,1 | -1 | -1.001 | -1 | -1 | -1.001 | -1.001 |  |  | 3607 | 1 (ThT. Cat is 1, if Rel. ThT >2) | 1 (ThT. Cat is 1, if Rel. ThT >2) | 1 (ThT. Cat is 1, if Rel. ThT >2) | 1 (ThT. Cat is 1, if Rel. ThT >2) | 1 (ThT. Cat is 1, if Rel. ThT >2) | 50.7% | 50.72 |  | Tht category (> 2 to blank = +) ([2]; FigS12 panel A): 1 (ThT. Cat is 1, if Rel. ThT >2); ThT Cat, ([2]; FigS12 panel B): 1 (ThT. Cat is 1, if Rel. ThT >2) |
| HHHHKIKIKIKIWWWW | 0,38 | -0,42 | -0.4216 | -0.42 | -0.42 | -0.4216 | -0.4216 | -0.42 | -0.42 |  | 1 (ThT. Cat is 1, if Rel. ThT >2) | 1 (ThT. Cat is 1, if Rel. ThT >2) | 1 (ThT. Cat is 1, if Rel. ThT >2) |  | 1 (ThT. Cat is 1, if Rel. ThT >2) | 96% | 96 | 1 (ThT. Cat is 1, if Rel. ThT >2) |  |
| HHHHKIKIQINMYYYY | 1,11 | 0,04 | 0.04454 | 0.04 | 0.04 | 0.04454 | 0.04454 | 0.04 |  |  | 1 (ThT. Cat is 1, if Rel. ThT >2) | 1 (ThT. Cat is 1, if Rel. ThT >2) | 1 (ThT. Cat is 1, if Rel. ThT >2) |  | 1 (ThT. Cat is 1, if Rel. ThT >2) | 98.4% | 98.42 | 1 (ThT. Cat is 1, if Rel. ThT >2) |  |
| KFKFKFQF | 0,8 | -0,1 | -0.09726 | -0.1 | -0.1 | -0.09726 | -0.09726 | -0.1 |  |  | 1 (ThT. Cat is 1, if Rel. ThT >2) | 1 (ThT. Cat is 1, if Rel. ThT >2) | 1 (ThT. Cat is 1, if Rel. ThT >2) |  | 1 (ThT. Cat is 1, if Rel. ThT >2) | 94% | 94 | 1 (ThT. Cat is 1, if Rel. ThT >2) |  |
